Columns and labels:
hNET [1] = molecular target: T1, hNET (Homo sapiens, UniProt P23975); assay type: binding
hDAT [2] = molecular target: T2, hDAT (Homo sapiens, UniProt Q01959); assay: [3H]-WIN 35,428 binding displacement in hDAT N2A cells; settings: 10 μM, pre- or co-incubation
hNET [3] = molecular target: T1, hNET; assay type: cell-based
hSERT [4] = molecular target: T3, hSERT (Homo sapiens, UniProt P31645); assay: [3H]-serotonin uptake inhibition, HEK-hSERT cells; assay type: cell-based; settings: read-out: [3H]-Serotonin uptake IC50, mean ± SEM
T3 sequence (P31645 whole entry): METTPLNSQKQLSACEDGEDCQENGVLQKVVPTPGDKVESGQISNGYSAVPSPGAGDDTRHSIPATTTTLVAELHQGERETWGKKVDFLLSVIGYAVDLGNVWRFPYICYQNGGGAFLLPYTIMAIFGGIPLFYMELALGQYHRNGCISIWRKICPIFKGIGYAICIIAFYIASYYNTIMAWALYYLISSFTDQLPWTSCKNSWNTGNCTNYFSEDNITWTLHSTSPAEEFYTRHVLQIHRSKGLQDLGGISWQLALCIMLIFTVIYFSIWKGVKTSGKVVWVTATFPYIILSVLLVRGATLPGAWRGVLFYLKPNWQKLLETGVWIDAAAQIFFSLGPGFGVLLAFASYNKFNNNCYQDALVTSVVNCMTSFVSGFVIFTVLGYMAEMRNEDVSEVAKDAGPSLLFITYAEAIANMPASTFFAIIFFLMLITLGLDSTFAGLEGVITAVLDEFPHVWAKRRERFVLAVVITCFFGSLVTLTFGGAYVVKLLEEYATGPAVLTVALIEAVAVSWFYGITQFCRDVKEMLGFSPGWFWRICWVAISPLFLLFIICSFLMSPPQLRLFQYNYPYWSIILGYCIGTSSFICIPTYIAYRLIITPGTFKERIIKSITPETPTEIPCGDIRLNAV

hDAT [5] = molecular target: T2, hDAT; assay: [3H]-dopamine uptake inhibition in hDAT N2A cells
hSERT [6] = molecular target: T3, hSERT; assay: [125I]-RTI-55 binding, HEK-hSERT membranes; settings: for Hill coefficient: [125I]-RTI-55 binding
hDAT [7] = molecular target: T2, hDAT; assay: [3H]-dopamine uptake inhibition, HEK-hDAT cells; assay type: cell-based; settings: switch to HEK cells
[8] = ref [17]; cited from earlier work
hDAT [9] = molecular target: T2, hDAT; assay: [125I]-RTI-55 binding, HEK-hDAT membranes; settings: for Hill coefficient: [125I]-RTI-55 binding
DAT = settings: known DAT ligands; ref Ukairo et al. ([12]); cited from earlier work

T2 sequence (Q01959 whole entry): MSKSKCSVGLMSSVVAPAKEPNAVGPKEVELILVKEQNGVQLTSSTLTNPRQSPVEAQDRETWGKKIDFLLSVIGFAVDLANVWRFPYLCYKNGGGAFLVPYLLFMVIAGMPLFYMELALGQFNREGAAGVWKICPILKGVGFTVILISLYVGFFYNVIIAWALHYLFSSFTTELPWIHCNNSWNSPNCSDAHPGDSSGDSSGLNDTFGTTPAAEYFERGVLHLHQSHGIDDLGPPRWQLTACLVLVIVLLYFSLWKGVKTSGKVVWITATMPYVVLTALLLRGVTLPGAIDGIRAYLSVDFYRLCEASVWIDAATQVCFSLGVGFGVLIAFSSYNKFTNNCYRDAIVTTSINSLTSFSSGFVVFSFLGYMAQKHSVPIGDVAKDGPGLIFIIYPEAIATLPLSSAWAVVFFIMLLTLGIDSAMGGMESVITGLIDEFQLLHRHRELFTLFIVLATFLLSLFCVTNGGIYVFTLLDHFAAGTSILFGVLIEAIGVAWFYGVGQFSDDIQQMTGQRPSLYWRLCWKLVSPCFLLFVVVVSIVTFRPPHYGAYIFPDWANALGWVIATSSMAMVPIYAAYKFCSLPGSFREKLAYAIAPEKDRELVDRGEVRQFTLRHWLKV
T1 sequence (P23975 whole entry): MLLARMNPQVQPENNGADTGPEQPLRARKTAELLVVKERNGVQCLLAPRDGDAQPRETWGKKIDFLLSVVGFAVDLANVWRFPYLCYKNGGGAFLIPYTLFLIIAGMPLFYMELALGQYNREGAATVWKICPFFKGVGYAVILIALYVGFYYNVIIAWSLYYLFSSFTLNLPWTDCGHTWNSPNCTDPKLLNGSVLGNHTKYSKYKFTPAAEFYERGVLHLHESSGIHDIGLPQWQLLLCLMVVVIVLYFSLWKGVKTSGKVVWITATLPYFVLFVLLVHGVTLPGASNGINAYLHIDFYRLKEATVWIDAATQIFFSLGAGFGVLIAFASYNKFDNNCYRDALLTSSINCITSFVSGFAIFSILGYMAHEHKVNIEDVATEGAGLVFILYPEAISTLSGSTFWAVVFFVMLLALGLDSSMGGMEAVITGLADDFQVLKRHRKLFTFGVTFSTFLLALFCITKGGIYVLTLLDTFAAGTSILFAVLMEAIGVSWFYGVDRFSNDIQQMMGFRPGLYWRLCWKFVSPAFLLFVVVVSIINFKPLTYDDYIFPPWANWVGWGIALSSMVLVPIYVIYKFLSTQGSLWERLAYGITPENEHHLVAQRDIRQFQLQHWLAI

Q: Which “Affinity at hNET higher than at hDAT” value (hNET [1]; HEK cells) does the source give for C[C@@H](CN1CCC(Cc2ccccc2)CC1)[C@@H](O)c1ccc(O)cc1.Cl (relative stereo) [MI-4, [R-(R*, S*)]-α-(4-Hydroxyphenyl)-β-methyl-4-(phenylmethyl)-1-piperidinepropanol hydrochloride] here?
A: The value was 10 fold.

Q: And the Hill coefficient (hNET [1]; HEK-hNET cells, [125I]-RTI-55 binding)?
A: The Hill coefficient was -1.04 ± 0.07.

Q: And the Ki (hNET [1]; read-out: [125I]-RTI-55 binding Ki, HEK-hNET cells, mean ± SEM)?
A: The Ki was 0.365 ± 0.068 µM.

Q: What about the “Block of [3H]-WIN 35,428 binding in initial screen” value (hDAT [2]) of the same molecule?
A: The value was “able to block [^3H]-WIN 35,428 binding in a statistically significant fashion”.

Q: And the “Substrate uptake inhibition potency at hNET greater than at hDAT” value (hNET [3]; HEK cells)?
A: The value was 3 – 4 fold.

Q: And the IC50 (hNET [3]; read-out: [3H]-NE uptake IC50, HEK-hNET cells, mean ± SEM)?
A: The IC50 was 2.09 ± 0.28 µM.

Q: What about the IC50 (hSERT [4]) of the same molecule?
A: The IC50 was 0.79 ± 0.17 µM.

Q: And the “[3H]-dopamine uptake inhibition in screening assay” value (hDAT [5]; 10 μM)?
A: Its value is “did not appreciably inhibit dopamine uptake”.

Q: And the “Shift of cocaine DUIP IC50 by MI-4” value (hDAT [5]; 10 μM MI-4)?
A: The value was “approximately 3 fold”.

Q: What about the IC50 (hDAT [5]; read-out: Dopamine uptake inhibition potency (DUIP)) of the same molecule?
A: The IC50 was 28 µM.

Q: What about the “Affinity at hSERT higher than at hDAT” value (hSERT [6]; HEK cells) of the same molecule?
A: Its value is 5 fold.

Q: What about the Hill coefficient (hSERT [6]; HEK-hSERT cells) of the same molecule?
A: Its Hill coefficient is -1.09 ± 0.04.

Q: What about the Ki (hSERT [6]; read-out: [125I]-RTI-55 binding Ki, HEK-hSERT cells, mean ± SEM) of the same molecule?
A: The Ki was 0.67 ± 0.1 µM.

Q: And the “DUIP increase, HEK vs N2A cells” value (hDAT [7])?
A: The value was 4 fold.

Q: And the “Crosses the blood-brain barrier” value [8]?
A: The value was “crosses the blood-brain barrier”.

Q: What about the “DAT affinity lower than that of cocaine” value (hDAT [9]; HEK-hDAT cells) of the same molecule?
A: The value was 20 fold.

Q: What about the Hill coefficient (hDAT [9]; HEK-hDAT cells) of the same molecule?
A: The Hill coefficient was -0.80 ± 0.10.

Q: What about the Ki (hDAT [9]; read-out: [125I]-RTI-55 binding Ki, HEK-hDAT cells, mean ± SEM) of the same molecule?
A: The Ki was 3.46 ± 0.26 µM.

Q: What about the “DAT affinity increase, HEK vs N2A cells” value (hDAT [9]; switch to HEK cells) of the same molecule?
A: Its value is about 2 fold.

Q: For COC(=O)[C@@H]1CN(C)CC[C@@H]1c1ccc(Cl)cc1 [4-ARA-127, (1S, 3S, 4R)-4-(chlorophenyl)-3-[hydroxy(methyloxo)methyl]-1-methylpiperidin-1iium], which “E pKi (experimental pKi)” value (DAT) is on record?
A: The value was 5.48.

Q: Which “E pKi (experimental pKi)” value (DAT) does the source give for COC(=O)[C@H]1[C@@H](OC(=O)c2ccccc2)C[C@@H]2CC[C@H]1O2 [8-Oxa-norcocaine, methyl (1R,2R,3S,5S)-3-benzoyloxy-8-oxabicyclo[3.2.1]octane-2-carboxylate] here?
A: Its value is 5.81.

Q: With COC(=O)[C@H]1[C@@H](OC(=O)c2ccccc2)C[C@@H]2CC[C@H]1N2C [Cocaine, methyl (1R,2R,3S,5S)-3-benzoyloxy-8-methyl-8-azabicyclo[3.2.1]octane-2-carboxylate, reference compound] as the molecule, how does the Hill coefficient (hSERT [6]; HEK-hSERT cells) read?
A: Its Hill coefficient is -1.12 ± 0.03.

Q: What about the Hill coefficient (hDAT [9]; HEK-hDAT cells) of the same molecule?
A: Its Hill coefficient is -0.81 ± 0.03.

Q: With OC1(c2ccc(Cl)cc2)c2ccccc2C2=NCCN21 (stereo not shown) [Mazindol, 5-(4-chlorophenyl)-2,3-dihydroimidazo[2,1-a]isoindol-5-ol] as the molecule, how does the “E pKi (experimental pKi)” value (DAT) read?
A: Its value is 7.89.

Q: For COC(=O)[C@H]1[C@@H](c2ccc(F)cc2)C[C@@H]2CC[C@H]1N2C [WIN 35,428, methyl (1R,2S,3S,5S)-3-(4-fluorophenyl)-8-methyl-8-azabicyclo[3.2.1]octane-2-carboxylate], which “E pKi (experimental pKi)” value (DAT) is on record?
A: The value was 7.70.
